# Laboratory results as given in US5496947A, “Quinolone carboxylic acid derivatives” (Dong Wha Pharmaceutical Industrial Co., Ltd., priority 1994, dated 1996).
# Where two headings read alike, the source gives them in different places.
# Experiments:
# [1] = system: Pseudomonas aeruginosa ATCC 27853; assay: MIC, 2-fold dilution method in micro-well plate, P. aeruginosa; format: cell-based; conditions: P. aerugirnosa ATCC27853, 37° C., read-out: Minimum Inhibitory Concentration
# Experimental: (§1) The in vitro antibiotic activity of the present compound is measured using 2-fold dilution method with a micro-well plate and the bacteria are inoculated in about 10^5 cfu/ml after an overnight culture in a brain-heart infusion (BHI) broth at 37° C. The novel compounds of the present invention are converted to a hydrochloride salt form and diluted with a sterilized distilled water to make 10 mg/ml aqueous solution. After the mother liquor wherein the compound is diluted to the two-fold concentration has been obtained in the form of an aqueous solution, the respective 0.1 ml of diluted liquor is transferred to a well and is inoculated with 0.1 ml of the culture fluid to make about (10^5 -10^6)/2 cfu/ml.
# (§2) After cultivation at 37° C., the minimum inhibitory concentration (MIC) is measured and recorded in Table I-V.
# (§3) Table I-V show the minimum inhibitory concentrations (MIC).
# Pseudomonas aeruginosa ATCC 27853
# [2] = system: Haemophilus influenza ATCC 35056; assay: MIC, 2-fold dilution method in micro-well plate, H. influenzae; format: cell-based; conditions: H. influenzae ATCC35056, 37° C.; read-out: Minimum Inhibitory Concentration
# Experimental: as §1, §2, §3
# Haemophilus influenza ATCC 35056
# [3] = system: Shigella sonnei ATCC 25931; assay: MIC, 2-fold dilution method in micro-well plate, S. sonnei; format: cell-based; conditions: S. sonnei ATCC25931, 37° C., read-out: Minimum Inhibitory Concentration
# Experimental: as §1, §2, §3
# Shigella sonnei ATCC 25931
# [4] = system: Klebsiella pneumoniae ATCC 13883; assay: MIC, 2-fold dilution method in micro-well plate, K. pneumoniae; format: cell-based
# Experimental: as §1, §2, §3
# Klebsiella pneumoniae ATCC 13883
# [5] = system: Acinetobacter calcoaceticus; assay: MIC, 2-fold dilution method in micro-well plate, A. calcoaceticus; format: cell-based
# Experimental: as §1, §2
# Table I-V show the minimum inhibitory concentrations (MIC). […]
# [6] = system: Salmonella typhimurium ATCC 14028; assay: MIC, 2-fold dilution method in micro-well plate, S. typhimurium; format: cell-based; conditions: Salmonella enterica, read-out: Minimum Inhibitory Concentration
# Experimental: as §1, §2, §3
# Salmonella typhimurium ATCC 14028
# [7] = system: Shigella flexneri ATCC 12022; assay: MIC, 2-fold dilution method in micro-well plate, S. flexneri; format: cell-based; conditions: S. flexneri ATCC12022, 37° C., read-out: Minimum Inhibitory Concentration
# Experimental: as §1, §2, §3
# Shigella flexneri ATCC 12022
# [8] = system: Citrobacter freundii ATCC 8090; assay: MIC, 2-fold dilution method in micro-well plate, C. freundii; format: cell-based
# Experimental: as §1, §2, §3
# Citrobacter freundii ATCC 8090
# [9] = system: Enterobacter aerogenes ATCC 13048; assay: MIC, 2-fold dilution method in micro-well plate, E. aerogenes; format: cell-based; conditions: Klebsiella aerogenes
# Experimental: as §1, §2, §3
# Enterobacter aerogenes ATCC 13048
# [10] = system: Escherichia coli ATCC 25922; assay: MIC, 2-fold dilution method in micro-well plate, E. coli; format: cell-based
# Experimental: as §1, §2, §3
# Escherichia coli ATCC 25922
# [11] = system: Proteus vulgaris ATCC 13315; assay: MIC, 2-fold dilution method in micro-well plate, P. vulgaris; format: cell-based
# Experimental: as §1, §2, §3
# Proteus vulgaris ATCC 13315
# [12] = system: Enterobacter cloacae; assay: MIC, 2-fold dilution method in micro-well plate, E. cloacae; format: cell-based; conditions: read-out: Minimum Inhibitory Concentration
# Experimental: as §1, §2, §3
# Enterobacter cloacae ATCC 23355
# [13] = system: Serratia marcescens ATCC 8100; assay: MIC, 2-fold dilution method in micro-well plate, S. marcescens; format: cell-based
# Experimental: as §1, §2, §3
# Serratia marcescens ATCC 8100
# [14] = system: Streptococcus faecalis ATCC 19433; assay: MIC, 2-fold dilution method in micro-well plate, S. faecalis ATCC 19433; format: cell-based; conditions: Enterococcus faecalis; S. faecalis ATCC19433, 37° C.; read-out: Minimum Inhibitory Concentration
# Experimental: as §1, §2, §3
# Streptococcus faecalis ATCC 19433
# [15] = system: Streptococcus faecalis ATCC 29212; assay: MIC, 2-fold dilution method in micro-well plate, S. faecalis ATCC 29212; format: cell-based; conditions: Enterococcus faecalis; S. faecalis ATCC29212, 37° C.; read-out: Minimum Inhibitory Concentration
# Experimental: as §1, §2, §3
# Streptococcus faecalis ATCC 29212
# [16] = system: Streptococcus pyrogens ATCC 19615; assay: MIC, 2-fold dilution method in micro-well plate, S. pyrogens; format: cell-based; conditions: S. pyrogenes ATCC19615, 37° C., read-out: Minimum Inhibitory Concentration
# Experimental: as §1, §2, §3
# Streptococcus pyrogens ATCC 19615
# [17] = system: Streptococcus pneumoniae ATCC 6303; assay: MIC, 2-fold dilution method in micro-well plate, S. pneumoniae; format: cell-based; conditions: S. pneuinoniae ATCC6303, 37° C., read-out: Minimum Inhibitory Concentration
# Experimental: as §1, §2, §3
# Streptococcus pneumoniae ATCC 6303
# [18] = Pharmacokinetic properties in ICR mouse, oral and subcutaneous, Bio-Assay (Agar well method); format: in vivo; conditions: 40 mg/kg, average of four tests; for dose excreted: urine, read-out: Urine Recovery
# Experimental: The pharmacokinetic properties are tested by orally administrating and subcutaneously injecting a test compound and a substance for control to a ICR Mouse with 22 g±10% weight, drawing blood after 10, 20, 30, 45, 60, 90, 120, 150, 180 and […] and analyzed by Bio-Assay (Agar well method).
# [19] = ATCC13883, read-out: Minimum Inhibitory Concentration
# [20] = ATCC8090, read-out: Minimum Inhibitory Concentration
# [21] = E. aerogenes ATCC13048, 37° C., read-out: Minimum Inhibitory Concentration
# [22] = E. coli ATCC25922, 37° C., read-out: Minimum Inhibitory Concentration
# [23] = ATCC13315, read-out: Minimum Inhibitory Concentration
# [24] = ATCC8100, read-out: Minimum Inhibitory Concentration
# [25] = ATCC13048, read-out: Minimum Inhibitory Concentration
# [26] = ATCC25922, read-out: Minimum Inhibitory Concentration
# [27] = K. pneumoniae ATCC13883, 37° C., read-out: Minimum Inhibitory Concentration
# [28] = A. calcoaceticus ATCC8090 (as in tables), 37° C., read-out: Minimum Inhibitory Concentration
# [29] = S. marcescens ATCC8100, 37° C., read-out: Minimum Inhibitory Concentration
SMILES,MIC [1] [µg/mL],MIC [2] [µg/mL],MIC [3] [µg/mL],"MIC [4, 19] [µg/mL]","MIC [5, 20] [µg/mL]",MIC [6] [µg/mL],MIC [7] [µg/mL],"MIC [8, 20] [µg/mL]","MIC [11, 23] [µg/mL]",MIC [12] [µg/mL],"MIC [13, 24] [µg/mL]",MIC [14] [µg/mL],MIC [15] [µg/mL],MIC [16] [µg/mL],MIC [17] [µg/mL],"MIC [9, 25] [µg/mL]","MIC [10, 26] [µg/mL]","MIC [5, 28] [µg/mL]",also measured
"CN1CCN(c2cc3c(cc2F)c(=O)c(C(=O)O)cn3-c2ccncc2F)CC1.Cl [Example 2, 1-(3-fluoro-4-pyridyl)-6-fluoro-7-(4-methyl-1-piperazinyl)-1,4-dihydro-4-oxoquinoline-3-carboxylic acid hydrochloride]",0.625,0.625,0.625,0.625,0.625,0.625,0.625,0.625,0.625,0.625,0.625,5,5,10,10,–,–,–,"MIC [9, 21]: 1.25 µg/mL; MIC [10, 22]: 1.25 µg/mL"
"CC1CN(c2cc3c(cc2F)c(=O)c(C(=O)O)cn3-c2ccncc2F)CCN1.Cl (centres unmarked) [Example 3, 1-(3-fluoro-4-pyridyl)-6-fluoro-7-(3-methyl-1-piperazinyl)-1,4-dihydro-4-oxoquinoline-3-carboxylic acid hydrochloride]",0.625,1.25,0.625,0.625,0.625,0.625,2.5,1.25,0.625,0.625,0.625,2.5,5,10,5,1.25,0.625,–,–
"CN1CCN(c2c(F)cc3c(=O)c(C(=O)O)cn(-c4ccc(F)cn4)c3c2F)CC1.Cl [Example 24, 1-(5-fluoro-2-pyridyl)-6,8-difluoro-7-(4-methyl-1-piperazinyl)-1,4-dihydro-4-oxoquinoline-3-carboxylic acid hydrochloride]",0.625,0.313,0.156,0.625,0.625,0.313,0.625,0.625,0.625,0.625,0.625,5,2.5,10,5,0.625,0.625,–,–
"Cl.NC1CCN(c2nc3c(cc2F)c(=O)c(C(=O)O)cn3-c2ccc(F)cn2)C1 (centres unmarked) [Example 16, 1-(5-fluoro-2-pyridyl)-6-fluoro-7-(3-amino-1-pyrrolidinyl)-1,4-dihydro-4-oxo-1,8-naphthyridine-3-carboxylic acid hydrochloride]",0.156,0.078,0.02,–,–,–,0.039,–,–,–,–,1.25,0.625,2.5,1.25,–,–,0.156,"MIC [4, 27]: 0.078 µg/mL; MIC ([6]; S. typhisurium ATCC14028, 37° C.): 0.313 µg/mL; MIC ([8]; C. freundii ATCC8090, 37° C., read-out: Minimum Inhibitory Concentration): 0.078 µg/mL; MIC [9, 21]: 0.313 µg/mL; MIC [10, 22]: 0.078 µg/mL; MIC ([11]; P. vulgaris ATCC13315, 37° C., read-out: Minimum Inhibitory Concentration): 0.078 µg/mL; MIC ([12]; E. cloacae ATCC23355 (as in tables), 37° C.): 0.156 µg/mL; MIC [13, 29]: 0.078 µg/mL"
"Cl.O=C(O)c1cn(-c2ccc(F)cn2)c2nc(N3CCNCC3)c(F)cc2c1=O [Example 12, 1-(5-fluoro-2-pyridyl)-6-fluoro-7-(1-piperazinyl)-1,4-dihydro-4-oxo-1,8-naphthyridine-3-carboxylic acid hydrochloride]",1.25,1.25,0.313,0.625,0.625,1.25,0.625,1.25,0.625,0.625,1.25,5,5,5,5,0.625,0.313,–,–
"Cl.O=C(O)c1cn(-c2ccc(F)cn2)c2c(F)c(N3CCNCC3)c(F)cc2c1=O [Example 23, 1-(5-fluoro-2-pyridyl)-6,8-difluoro-7-(1-piperazinyl)-1,4-dihydro-4-oxoquinoline-3-carboxylic acid hydrochloride]",1.25,0.625,0.078,–,–,0.313,0.313,0.625,0.313,0.625,0.625,5,5,5,2.5,0.625,0.625,1.25,"MIC [4, 27]: 1.25 µg/mL"
"CC1CN(c2cc3c(cc2F)c(=O)c(C(=O)O)cn3-c2ccc(F)cn2)CC(C)N1.Cl (centres unmarked) [Example 20, 1-(5-fluoro-2-pyridyl)-6-fluoro-7-(3,5-dimethyl-1-piperazinyl)-1,4-dihydro-4-oxoquinoline-3-carboxylic acid hydrochloride]",1.25,1.25,0.313,0.625,1.25,1.25,0.625,0.625,0.625,0.625,0.625,5,2.5,10,5,1.25,0.625,–,–
"CC1CN(c2c(F)cc3c(=O)c(C(=O)O)cn(-c4ccc(F)cn4)c3c2F)CCN1.Cl (centres unmarked) [Example 25, 1-(5-fluoro-2-pyridyl)-6,8-difluoro-7-(3-methyl-1-piperazinyl)-1,4-dihydro-4-oxoquinoline-3-carboxylic acid hydrochloride]",0.313,0.625,0.156,0.625,–,0.625,0.156,0.625,0.625,0.625,–,5,5,10,5,0.625,0.625,1.25,"MIC [13, 29]: 1.25 µg/mL"
"CC1COc2c(N3CCN(C)CC3)c(F)cc3c(=O)c(C(=O)O)cn1c23 (centres unmarked) [Ofloxacin, reference compound]",–,–,–,–,–,–,–,–,–,–,–,–,–,–,–,–,–,–,"AUC ([18]; blood, po, P.O): 12800 ng·h/mL; Cmax ([18]; blood, po, P.O): 9410 ng/mL; Tmax ([18]; blood, po, P.O): 45 min; bioavailability ([18]; blood, po, P.O): 89.8%; AUC ([18]; blood, sc, S.C): 14200 ng·h/mL; Cmax ([18]; blood, sc, S.C): 12900 ng/mL; Tmax ([18]; blood, sc, S.C): 25.2 min; half-life ([18]; blood, sc, S.C): 25.2 min; dose excreted ([18]; po, P.O): 32.2%; dose excreted ([18]; sc, S.C): 39.1%"
